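1) Cells in 96-well plates. 2) Compound, 48 h, 5 concentrations. 3) Linear interpolation between surrounding doses. 4) Unreached endpoint = highest concentration. Abbreviation: GI50, concentration required for 50% inhibition of growth. TGI marks complete inhibition of growth.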
Key:
Assay in all cases: NCI-60 cell line screen, 48 h
MDA-MB-231 breast = test system: MDA-MB-231 breast
PC-3 prostate = test system: PC-3 prostate
MCF7 breast = test system: MCF7 breast
MALME-3M melanoma = test system: MALME-3M melanoma
UACC-257 melanoma = test system: UACC-257 melanoma
M14 melanoma = test system: M14 melanoma
CCRF-CEM leukemia = test system: CCRF-CEM leukemia
DU-145 prostate = test system: DU-145 prostate
SF-539 CNS = test system: SF-539 CNS
NCI-H23 lung = test system: NCI-H23 lung

| SMILES | TGI (MDA-MB-231 breast) | TGI (PC-3 prostate) | TGI (MCF7 breast) | TGI (MALME-3M melanoma) | TGI (UACC-257 melanoma) | TGI (M14 melanoma) | TGI (CCRF-CEM leukemia) | TGI (DU-145 prostate) | TGI (SF-539 CNS) | TGI (NCI-H23 lung) | GI50 (MDA-MB-231 breast) | GI50 (PC-3 prostate) | GI50 (MCF7 breast) | GI50 (MALME-3M melanoma) | GI50 (UACC-257 melanoma) | GI50 (M14 melanoma) | GI50 (CCRF-CEM leukemia) | GI50 (DU-145 prostate) | GI50 (SF-539 CNS) | GI50 (NCI-H23 lung) |
| --- | --- | --- | --- | --- | --- | --- | --- | --- | --- | --- | --- | --- | --- | --- | --- | --- | --- | --- | --- | --- |
| COc1ccc(C2C(C#N)=C(S)N(C3OC(COC(C)=O)C(OC(C)=O)C(OC(C)=O)C3OC(C)=O)C(c3ccccc3)=C2C(C)=O)cc1 (stereo not given) | > 100 µM | > 100 µM | > 100 µM | > 100 µM | > 100 µM | > 100 µM | > 100 µM | > 100 µM | > 100 µM | > 100 µM |  |  |  |  |  |  |  |  |  |  |
| COC(=O)c1ccc(C)cc1CC1Cc2ccc(C)cc2C1=O (stereo not given) | 77.4 µM | 71.8 µM | 19.9 µM | 24.3 µM | 53.6 µM | 32.2 µM | 74.5 µM | > 100 µM | 19.5 µM | 74.7 µM |  |  |  |  |  |  |  |  |  |  |
| CCOC(=O)NC(OC)(C(F)(F)F)C(F)(F)F | > 100 µM | > 100 µM | > 100 µM | > 100 µM | > 100 µM | > 100 µM | > 100 µM | > 100 µM | > 100 µM | > 100 µM |  |  |  |  |  |  |  |  |  |  |
| C=C(C)COC1CCCCO1 (stereo not given) | > 100 µM | > 100 µM | > 100 µM | > 100 µM | > 100 µM | > 100 µM | > 100 µM | > 100 µM | > 100 µM | > 100 µM |  |  |  |  |  |  |  |  |  |  |
| COc1ccc2c3c([nH]c2c1)CCN(CCCC(=O)c1ccc(F)cc1)C3 | 31.2 µM | 25.6 µM | 31.6 µM | 27 µM | 31.7 µM | 28.9 µM | 54.9 µM | 33.9 µM | 22.3 µM | 34.8 µM |  |  |  |  |  |  |  |  |  |  |
| Cc1cc(S(=O)(=O)Nc2nnc3cnc4ccccc4n23)c(S)cc1Cl | > 100 µM | > 100 µM | > 100 µM | > 100 µM | > 100 µM | > 100 µM | > 100 µM | > 100 µM | > 100 µM | > 100 µM |  |  |  |  |  |  |  |  |  |  |
| COc1cc(OC)cc(-c2n/c(=C\c3c(O)[nH]c4ccc(OC)cc34)cc3c2=Nc2ccccc2-3)c1 | 3.26 µM | 62.2 µM | 3.41 µM | 5.42 µM | 49.8 µM | 4.18 µM | 12.2 µM | 10.7 µM | 25.4 µM | 8.47 µM | 1.56 µM | 20.5 µM | 1.4 µM | 2.27 µM | 23.3 µM | 2.24 µM | 2.78 µM | 3.49 µM | 10.4 µM | 2.78 µM |
| NC1=Nc2cc(Cl)ccc2Sc2nc3ccccc3n21 | > 100 µM | > 100 µM | > 100 µM | > 100 µM | > 100 µM | > 100 µM | 19.4 µM | > 100 µM | > 100 µM | > 100 µM |  |  |  |  |  |  |  |  |  |  |
| CN(C)c1ccc(/C=C(\NC(=O)c2ccccc2)C2=NC(CCC(=O)O)C(=O)O2)cc1 (stereo not given) | > 50 µM | > 50 µM | > 50 µM | > 50 µM | > 50 µM | > 50 µM | > 50 µM | > 50 µM | > 50 µM | > 50 µM |  |  |  |  |  |  |  |  |  |  |
| C[C@@H]1C(=O)C[C@H]2C(C)(C)CCC[C@]2(C)[C@@]1(O)CCc1ccoc1 | > 100 µM | > 100 µM | > 100 µM | > 100 µM | > 100 µM | > 100 µM | > 100 µM | > 100 µM | > 100 µM | > 100 µM |  |  |  |  |  |  |  |  |  |  |
| O=C1CC[C@@]2(O)[C@H]3Cc4ccc(-c5ccccc5)c5c4[C@@]2(CCN3CC2CC2)[C@H]1O5 | 31.8 µM | 46.7 µM | 33.5 µM | 29.9 µM | 31.3 µM | 34 µM | 49.7 µM | 62.7 µM | 33.5 µM | 78.9 µM |  |  |  |  |  |  |  |  |  |  |
| CCOC(=O)c1nc2ccc(C(F)(F)F)cc2nc1Nc1ccc(Cl)c(Cl)c1 | > 100 µM | > 100 µM | > 100 µM | > 100 µM | > 100 µM | > 100 µM | > 100 µM | > 100 µM | > 100 µM | > 100 µM |  |  |  |  |  |  |  |  |  |  |
| COC(=O)c1c(O)ccc2[nH]c3c(O)c4ccccc4cc3c12 | > 100 µM | > 100 µM | 56.2 µM | 51.9 µM | 94.5 µM | 67.4 µM | 63.1 µM | 71 µM | 60.3 µM | 64.3 µM |  |  |  |  |  |  |  |  |  |  |
| CCCCCCCCCCCCCCC(O)C[N+](C)(CCO)CCO (stereo not given) | 3.76 µM | 4.31 µM | 36.5 µM | 7.54 µM | 26.7 µM | 3.66 µM | 9.82 µM | 23.6 µM | 7.21 µM | 20.7 µM |  |  |  |  |  |  |  |  |  |  |
| Cc1ccc(-c2nc(N/N=C/c3ccc(O)cc3)c3ccccc3n2)cc1 | 91.5 µM | 31.7 µM | 26.2 µM | 29.4 µM | 15.4 µM | 18.9 µM | > 100 µM | 75.2 µM | > 100 µM | 33.8 µM |  |  |  |  |  |  |  |  |  |  |
| COc1cc2c(c(O)c1OC)CC1CCC(=O)N1C2c1cccc2ccccc12 (stereo not given) | 33 µM | 43.7 µM | > 100 µM | 44.5 µM | 61 µM | 33.8 µM | > 100 µM | 37.3 µM | 30.6 µM | 67.6 µM |  |  |  |  |  |  |  |  |  |  |

Source: PubChem BioAssay (NCI)
